# Publication PMC7954447 (Science Advances, 2021)
# Target: human α7 nicotinic ACh receptor (nAChR) (Homo sapiens, UniProt P36544)
# Assay type: cell-based
# Chain of human α7 nicotinic ACh receptor (nAChR) (P36544 23-502): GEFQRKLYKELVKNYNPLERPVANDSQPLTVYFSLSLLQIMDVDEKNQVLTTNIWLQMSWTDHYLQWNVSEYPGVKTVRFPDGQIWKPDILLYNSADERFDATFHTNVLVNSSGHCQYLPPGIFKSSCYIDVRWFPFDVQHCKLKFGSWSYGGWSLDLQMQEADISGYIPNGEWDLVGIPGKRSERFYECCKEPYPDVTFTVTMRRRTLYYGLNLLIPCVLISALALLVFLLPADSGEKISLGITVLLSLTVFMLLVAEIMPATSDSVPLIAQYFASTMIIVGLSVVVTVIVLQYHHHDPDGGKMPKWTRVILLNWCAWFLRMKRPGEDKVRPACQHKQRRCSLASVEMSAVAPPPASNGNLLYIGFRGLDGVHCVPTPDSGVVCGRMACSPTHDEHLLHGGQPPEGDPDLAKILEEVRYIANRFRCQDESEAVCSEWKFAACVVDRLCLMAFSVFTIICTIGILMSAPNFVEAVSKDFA
substance,measurement,value
Conazolium A [compound 1],IC50,24.4 µM
